# Test results from BindingDB's records for doi:10.1006/abio.2001.5466 (Kosan Biosciences, 2002).
# pKi: −log10 of the molar value. “And” between values parts separate entries of the source, which are not always exact repeats. Identical values can stand only once.
# Biological target: T1, Promotilin (Homo sapiens, UniProt P12872)
# T1 sequence (P12872 whole entry): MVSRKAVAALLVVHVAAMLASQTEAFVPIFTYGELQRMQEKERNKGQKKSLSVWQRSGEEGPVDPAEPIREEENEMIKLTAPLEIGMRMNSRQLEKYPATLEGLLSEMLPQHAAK
row,pKi,SMILES
1,5.89,"CC[C@H]1OC(=O)[C@H](C)[C@@H](O[C@H]2C[C@@](C)(OC)[C@@H](O)[C@H](C)O2)[C@H](C)[C@@H](O[C@H]2O[C@@H](C)C[C@@H](N(C)C)[C@@H]2O)[C@](C)(O)C[C@@H](C)C(=O)[C@H](C)[C@@H](O)[C@]1(C)O [(3R,4S,5S,6R,7R,9R,11R,12R,13S,14R)-6-{[(2R,3S,4R,6S)-4-(dimethylamino)-3-hydroxy-6-methyloxan-2-yl]oxy}-14-ethyl-7,12,13-trihydroxy-4-{[(2R,4R,5S,6S)-5-hydroxy-4-methoxy-4,6-dimethyloxan-2-yl]oxy}-3,5,7,9,11,13-hexamethyl-1-oxacyclotetradecane-2,10-dione]"
2,7.72 and 7.32,CC[C@H]1OC(=O)[C@H](C)[C@@H](O[C@H]2C[C@@](C)(OC)[C@@H](O)[C@H](C)O2)[C@H](C)[C@@H](O[C@@H]2O[C@H](C)C[C@H](N(C)C)[C@H]2O)[C@@]2(C)CC(C)=C(O2)[C@H](C)[C@@H](O)[C@]1(C)O [Erythromycin-A enol ether]
3,8.28,CC[C@H](C)[C@H](NC(=O)[C@@H]1CCCN1C(=O)[C@@H](NC(=O)[C@@H](N)Cc1ccccc1)C(C)C)C(=O)N[C@@H](Cc1ccccc1)C(=O)N[C@H](C(=O)N[C@@H](Cc1ccc(O)cc1)C(=O)NCC(=O)N[C@@H](CCC(=O)O)C(=O)N[C@@H](CC(C)C)C(=O)N[C@@H](CCC(N)=O)C(=O)N[C@@H](CCCNC(=N)N)C(=O)N[C@@H](CCSC)C(=O)N[C@@H](CCC(N)=O)C(=O)N[C@@H](CCC(=O)O)C(=O)N[C@@H](CCCCN)C(=O)N[C@@H](CCC(=O)O)C(=O)N[C@@H](CCCNC(=N)N)C(=O)N[C@@H](CC(N)=O)C(=O)N[C@@H](CCCCN)C(=O)NCC(=O)N[C@@H](CCC(N)=O)C(=O)O)[C@@H](C)O [CAS_52906-92-0]
